Series [1] addresses T1, His-tagged human recombinant DCTPP1 protein (Homo sapiens, UniProt Q9H773).
T1 construct: His; purchased ATGen
T1 sequence (Q9H773 1-170): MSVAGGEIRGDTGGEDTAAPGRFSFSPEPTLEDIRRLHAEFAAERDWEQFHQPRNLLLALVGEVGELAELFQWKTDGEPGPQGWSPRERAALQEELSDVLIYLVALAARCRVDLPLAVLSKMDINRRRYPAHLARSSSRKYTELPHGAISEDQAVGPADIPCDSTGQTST
Briefly: DCTPP1 enzyme assay. Conditions: at 100 μM. Type of series: biochemical. How it is done:
Likewise, the enzymatic activities of ITPA and DCTPP1 were measured using a PPiLight Inorganic Pyrophosphate Assay kit. For the ITPA enzyme assay, we used ITPA assay buffer (100 mM Tris-acetate, 50 mM Mg(OAc)2, 0.005% Tween-20, and 2 mM DTT, pH 7.5), His-tagged human recombinant ITPA protein (5 nM; ProSpec), and ITP (25 μM). For the DCTPP1 enzyme assay, we used DCTPP1 assay buffer (100 mM Tris-acetate, 100 mM NaCl, 10 mM Mg(OAc)2, 0.005% Tween-20, and 2 mM DTT, pH 7.5), His-tagged human recombinant DCTPP1 protein (50 nM; ATGen), and deoxycytidine triphosphate (dCTP; 50 μM).
To exclude false positive compounds that inhibit PPi detection, the effects of test compounds on 10 μM Na4P2O7-induced luciferase activity were examined.

For series [2], the system named is HeLa cells. Put plainly: Cell death assay (WST-8) in HeLa cells. Type of series: cell-based, human. The protocol: (§1) Human cancer cell lines HeLa (cervical cancer), MIA PaCa-2 (pancreatic cancer), A431 (epidermoid carcinoma), and human embryonic kidney derived cell line HEK293T were cultured in Dulbecco’s Modified Eagle’s Medium (DMEM; Invitrogen) containing 10% fetal bovine serum (FBS), penicillin G (50 units/mL) and streptomycin (50 µg/mL). Human cancer cell lines Panc-1 (pancreatic cancer) and Jurkat (T cell lymphoma) were cultured in RPMI (Gibco) containing 10% FBS, penicillin G (50 units/mL) and streptomycin (50 µg/mL). Human osteosarcoma cell line MG-63, mouse embryonic fibroblast NIH3T3 cells and its transformant NIH3T3/KRAS cells1 were cultured in DMEM (Sigma-Aldrich) containing 10% calf serum, glutamine (0.3 g/L), penicillin G (50 units/mL), and streptomycin (50 µg/mL). All cell lines were incubated at 37 °C in a humidified atmosphere containing 5% CO2.
(§2) The cells were seeded in 96-well plates, cultured overnight, and treated with test compounds for the indicated time. Subsequently, cell viability was measured by the WST-8 assay, using Cell Count Reagent SF (Nacalai Tesque) according to the manufacturer ’s instructions, with the measurement of absorbance set at 450 nm on the ARVO SX 1420 Multilabel Counter (Wallac). […]
(Formazan colour is commonly taken as a measure of viable cells.)

For series [3], the target named is T2, His-tagged human recombinant MTH1 protein (Homo sapiens, UniProt P36639).
T2 construct: His; purchased ProSpec
Briefly: MTH1 enzyme assay (PPiLight pyrophosphate detection). It counts as biochemical. Conditions: MTH1 2 nM. How it is done: An MTH1 enzyme assay was performed as described previously with minor modifications. Briefly, test compounds were dissolved in an assay buffer [100 mM Tris-acetate, 40 mM NaCl, 10 mM Mg(OAc)2, 0.005% Tween-20, and 2 mM dithiothreitol (DTT), pH 7.5] containing His-tagged human recombinant MTH1 protein (2 nM; ProSpec). […] Relative MTH1 activity was measured by monitoring the pyrophosphate (PPi) generated through MTH1-catalyzed nucleotide triphosphate hydrolysis. The luciferase-mediated luminescence signal was recorded for 30 min using a luminometer (Molecular Devices).

The nature of series [4]: Cell death assay (WST-8) in HeLa cells. Type of series: cell-based, human. The note with it: human, HeLa cells (cervical cancer); 72 h, WST-8; read-out: cytotoxicity IC50 against HeLa cells. How it is done: as §1, §2
In series [5] the test system is nuclear 53BP1 foci in HeLa cells. Briefly: 53BP1 foci immunofluorescence (DNA damage). Type of series: cell-based, human. The note with it: 24 h, only at the higher concentrations (100-300 μM). The protocol: For 53BP1, test compound–treated HeLa cells were fixed in 3% formalin in PBS containing 0.1% Triton X-100 for 15 min and permeabilized in 0.5% Triton X-100 for 5 min. After blocking with 10% FBS and 0.1% Triton X-100 in PBS for 1 h, cells were incubated sequentially with a primary antibody against 53BP1 (1:600, sc-22760; Santa Cruz Biotechnology) in blocking solution at 37 °C for 1 h and with Alexa Fluor 568-conjugated secondary antibody (1:400, Life Technologies) under the same condition.
After a quick rinse in PBS, DNA was counterstained with 0.5 µg/mL Hoechst 33342 (Sigma-Aldrich) in PBS at room temperature for 10 min. Images were analyzed on a fluorescence microscope (Delta Vision). […]

The target in series [6] is T3, porcine tubulin (Sus scrofa, UniProt P02550+P02554).
T3 construct: purchased Cytoskeleton
Briefly: In vitro tubulin polymerization assay. Conditions: dose-dependent. It counts as biochemical. The protocol: In vitro tubulin polymerization assay was performed using a tubulin polymerization assay kit (Cytoskeleton) according to the manufacturer’s instructions. Briefly, lyophilized porcine tubulin was solubilized to a final concentration of 2 mg/mL in reaction buffer containing 80 mM piperazine-N,N′-bis(2-ethanesulfonic acid) (PIPES; pH 6.9), 2 mM MgCl2, 0.5 mM ethylene glycol tetraacetic acid (EGTA), 1 mM guanosine-5′-triphosphate (GTP), 10 μM fluorescent reporter, and 20% glycerol, and kept at 4 °C. Compounds (100 × DMSO stock solutions) were added to prewarmed half-area 96-well black plates. Cold tubulin solution was added to the wells. The plate contents were mixed by shaking, and fluorescence (Ex 350 nm, Em 435 nm) was read every minute for 1 h using a fluorescence microplate reader (Molecular Devices).

For series [7], the system named is 8-oxo-dG levels in DNA of HeLa cells. Put plainly: 8-oxo-dG immunofluorescence. Conditions: 20 h, NPD compounds 100 μM, TH287 3 and 10 μM. Type of series: cell-based, human. The protocol: as §1, with “CO2. […]” for “CO2.”
The HeLa cells were seeded on glass coverslips in 12-well plates, cultured overnight, and treated with test compounds for the indicated time. For 8-oxo-dG, cells were fixed sequentially in 3.7% formalin for 10 min and methanol at -20 °C for 10 min, and then permeabilized in 0.5% Triton X-100 in PBS at room temperature for 5 min. After blocking with 0.5% BSA in PBS at room temperature for 30 min, cells were incubated sequentially with a primary antibody against 8-oxo-dG (5 µg/mL, MOG-020; Japan Institute for the Control of Aging) and with Alexa Fluor 488-conjugated secondary antibody (1:400, Life Technologies) under the same conditions. After a quick rinse in PBS, DNA was counterstained with 0.1 µg/mL 4′,6-diamidino-2-phenylindole (DAPI) in PBS at room temperature for 10 min. Images were analyzed with a fluorescence microscope (BX60, Olympus).

Series [8] concerns HeLa cells. Put plainly: Cell cycle analysis (propidium iodide flow cytometry). It counts as cell-based, human. The note with it: 24 h. The protocol: The HeLa cells were seeded in 12-well plates and treated with test compounds for the indicated time. Cells were harvested, washed with PBS, and incubated in propidium iodide (PI) solution containing 50 µg/mL propidium iodide, 0.1% sodium citrate, 0.2% Nonidet P-40, and 0.25 µg/mL RNase A (Nacalai Tesque) for 30 mi n in the dark.
Cellular DNA content was analyzed by fluorescence-activated cell sorting using a Cytomics FC500 (Beckman Coulter). […]

Series [9] has as its system Bcl-2 phosphorylation in HeLa cells. Put plainly: Detection of phosphorylated Bcl-2 (western blot). Type of series: cell-based, human. The note with it: 24 h, at the effective concentrations. How it is done: Western blot analysis for detection of phosphorylated Bcl-2 was performed as described previously with several modifications. Briefly, HeLa cells were treated with test compounds for 24 h, then harvested and lysed by sonication in a radioimmunoprecipitation assay buffer (RIPA) buffer containing 25 mM 4-(2-hydroxyethyl)-1-piperazineethanesulfonic acid (HEPES; pH 7.8), 0.5 M NaCl, 5 mM ethylenediaminetetraacetic acid (EDTA), 1.5% Triton-X-100, 1.0% sodium deoxycholate, and 0.1% sodium dodecyl sulfate (SDS), supplemented with a protease inhibitor cocktail (Roche). Samples were subjected to SDS-PAGE and transferred to a PVDF membrane. The membrane was incubated with a primary antibody against Bcl-2 (1:500, #M0887; DAKO) and a horseradish peroxidase-labeled secondary antibody (1:2000, 170-6516; Bio-Rad) in sequence. Then, they were visualized with Fusion Solo S using the SuperSignal West Pico Chemiluminescence Substrate. Phosphorylated Bcl-2 was detected on the upper side of unphosphorylated Bcl-2 by the mobility shift. As a loading control, α-tubulin was detected in the same samples by using a primary antibody against α-tubulin (1:2000, T9026; Sigma-Aldrich).
A general note: A western blot detects proteins with antibodies after separation by electrophoresis.

Series [10] has as its system intracellular microtubule networks in HeLa cells. Put plainly: alpha-tubulin immunofluorescence (interphase microtubules). It counts as cell-based, human. Conditions: 6 h, at cytotoxic concentrations. The protocol: For α-tubulin, immunofluorescence was performed as described previously with several modifications2. Briefly, test compound–treated HeLa cells were fixed in 3.7% formalin for 1 min and methanol at -20 °C for 5 min sequentially, and permeabilized in 0.5% Triton X-100 in PBS for 5 min. After blocking with 0.5% BSA in PBS at room temperature for 30 min, cells were incubated sequentially with a primary antibody against α-tubulin (1:200, T9026; Sigma-Aldrich) in the blocking solution at 37 °C for 1 h, and with Alexa Fluor 488-conjugated secondary antibody (1:400, Life Technologies) at 37 °C for 40 min. After a quick rinse in PBS, DNA was counterstained with 0.5 µg/mL Hoechst 33342 in PBS at room temperature for 10 min. Images were analyzed using a fluorescence microscope (Delta Vision). […]
2 Futamura, Y. et al. Morphobase, an encyclopedic cell morphology database, and […]

Series [11] concerns other members of the Nudix protein family, nucleoside triphosphate pyrophosphatases. Also noted: method as in PMID 24695224. The note with it: cited from earlier work.
Series [12] deals with 87 enzymes, GPCRs, kinases, ion channels, and transporters. Also noted: method as in PMID 24695224. Conditions: at 10 μM; with few exceptions; cited from earlier work.
The test system of series [13] is patient-derived malignant melanoma cells. Also noted: method as in PMID 24695224. Conditions: cited from earlier work.
Setting [14] is: substrate 2-OH-dATP (8.3 μM), read-out: IC50 of MTH1 inhibitory activity, 2-OH-dATP.
The mark [15] stands for this setting: substrate 8-oxo-dGTP (13.2 μM), read-out: IC50 of MTH1 inhibitory activity, 8-oxo-dGTP.

Like-named read-outs stand apart in the source and are kept apart here. A value given as a limit tells only on which side of the number the result lay.

T3 sequence (P02550 whole entry): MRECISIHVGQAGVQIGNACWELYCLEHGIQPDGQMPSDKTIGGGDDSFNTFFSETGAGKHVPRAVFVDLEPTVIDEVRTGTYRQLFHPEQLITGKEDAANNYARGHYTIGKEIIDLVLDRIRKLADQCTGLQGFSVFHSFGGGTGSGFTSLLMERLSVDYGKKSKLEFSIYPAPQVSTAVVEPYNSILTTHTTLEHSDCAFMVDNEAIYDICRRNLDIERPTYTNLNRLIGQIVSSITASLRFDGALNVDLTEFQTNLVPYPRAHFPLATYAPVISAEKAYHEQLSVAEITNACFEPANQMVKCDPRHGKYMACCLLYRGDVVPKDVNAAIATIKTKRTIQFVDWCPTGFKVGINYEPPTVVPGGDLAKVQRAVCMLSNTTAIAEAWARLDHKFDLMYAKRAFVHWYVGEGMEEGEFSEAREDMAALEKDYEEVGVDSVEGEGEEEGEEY
T3 sequence (P02554 whole entry): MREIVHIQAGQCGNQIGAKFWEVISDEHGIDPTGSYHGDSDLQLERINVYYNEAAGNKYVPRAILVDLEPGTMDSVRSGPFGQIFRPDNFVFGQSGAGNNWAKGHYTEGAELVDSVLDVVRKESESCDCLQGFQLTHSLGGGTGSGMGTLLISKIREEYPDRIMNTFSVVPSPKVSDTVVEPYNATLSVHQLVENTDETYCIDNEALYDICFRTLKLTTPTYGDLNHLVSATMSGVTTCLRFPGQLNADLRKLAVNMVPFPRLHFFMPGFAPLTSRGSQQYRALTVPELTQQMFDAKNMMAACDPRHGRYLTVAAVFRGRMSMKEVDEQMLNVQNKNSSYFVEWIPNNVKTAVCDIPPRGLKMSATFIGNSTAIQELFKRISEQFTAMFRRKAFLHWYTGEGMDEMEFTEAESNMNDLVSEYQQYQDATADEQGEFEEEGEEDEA

The IC50 is the concentration that gives 50% inhibition. For `C[C@H](Oc1cc(-c2cnn(C3CCNCC3)c2)cnc1N)c1c(Cl)ccc(F)c1Cl` [(S)-crizotinib, reference compound], the “effect on enzymatic activity of DCTPP1” value in [1] is given as “slightly inhibited”. In series [2] (72 h, WST-8, read-out: cytotoxicity IC50 against HeLa cells), the IC50 turned out to be 13 µM.

Consider `Cn1cnc2c(NCc3ccco3)ncnc21` [NPD8880], for which the IC50 in series [3] (setting [14]) and in series [3] (setting [15]) was above 1000 µM in each case. Moreover, the IC50 at 72 h in series [4] was 650 µM. Further, in series [5], the “DNA damage (nuclear 53BP1 foci formation)” value is given as “induced DNA damage”.

As to `CC(C)OCCCNc1ncnc2[nH]cnc12` [NPD15095], the results for the IC50 in series [3] (setting [14]) and in [3] (setting [15]) were 6.7 µM and 3.3 µM, respectively.

For the molecule `COc1ccc2nc3c(c(C)nn3C)c(NCCOCCO)c2c1` [SCH51344, reference compound], the half-inhibitory concentration (IC50) stood at 0.75 ± 0.4 µM in series [3] (setting [14]), 0.32 ± 0.04 µM in series [3] (setting [15]) and 5.5 µM in series [2]. For the same molecule, in [1], the “effect on enzymatic activity of DCTPP1” value is “slightly inhibited”.

As for `CNc1cc(-c2cccc(Cl)c2Cl)nc(N)n1` [TH287, reference compound], the results for the IC50 in series [3] (setting [14]) and in [3] (setting [15]) were 0.0036 ± 0.0017 µM and 0.0022 ± 0.0003 µM, respectively. Moreover, the “effect on tubulin polymerization in vitro” value in [6] is “inhibited tubulin polymerization”. In addition, in series [7], the “accumulation of 8-oxo-dG” value was “increased 8-oxo-dG levels”. The “population of HeLa cells in G2/M phase” value in series [8] was “increased the population of HeLa cells in G2/M phase”. The Bcl-2 phosphorylation result in series [9] is “induced Bcl-2 phosphorylation”. Besides, the “effect on intracellular microtubule networks” value in series [10] is “disrupted intracellular microtubule networks”. Also, the “inhibition of other Nudix family members and nucleoside triphosphate pyrophosphatases” value in series [11] was “did not inhibit”.

For the molecule `Nc1nc(NC2CC2)cc(-c2cccc(Cl)c2Cl)n1` [TH588], in series [6], the “effect on tubulin polymerization in vitro” value was “inhibited tubulin polymerization”. For the same molecule, the “population of HeLa cells in G2/M phase” value in series [8] is “increased the population of HeLa cells in G2/M phase”. Moreover, the Bcl-2 phosphorylation entry in series [9] was “induced Bcl-2 phosphorylation”. The “effect on intracellular microtubule networks” value in [10] is recorded as “disrupted intracellular microtubule networks”. For the same molecule, in [11], the “inhibition of other Nudix family members and nucleoside triphosphate pyrophosphatases” value is “did not inhibit”. The “effect against 87 enzymes, GPCRs, kinases, ion channels, and transporters” value in series [12] was “little effect”. Besides, the “tumor growth in mouse xenograft model” value in [13] is given as “suppressed tumor growth”.

(Values after article PMC4876372 (Scientific Reports, 2016).)
